What was measured:
[1] = GO radical scavenging activity (TAC assay); type: biochemical; details: ethanol, absorbance 428 nm
From the text: In an embodiment, the AntiOxCINs antioxidant ranking activity hierarchy was established by in vitro non-cell methods. The selected total antioxidant capacity (TAC) assays (DPPH, ABTS and GO) involved the spectrophotometric measurement of the radical absorbance decrease as a result of an in situ radical deactivation by an antioxidant. Compounds with higher antioxidant activity display lower IC50 values. […] This decrease was attenuated/ameliorated by the increment of the spacer length and/or the introduction of additional hydroxyl group in the aromatic ring.
The radical scavenging activity of AntiOxCINs was evaluated by means of total antioxidant capacity assays based on DPPH., ABTS.^+ and GO. radicals. All these methods involved the spectrophotometric measurement of the absorbance decrease resulting from radical (DPPH., ABTS.^+ or GO.) deactivation with an antioxidant. The results were expressed in IC50, which is defined as the minimum antioxidant concentration necessary to reduce the amount of radical by 50%. Antioxidant assays were performed in a multiplate reader (Powerwave XS Microplate Reader) of Bio-Tech instruments.
In an embodiment, the GO′ scavenging activity was evaluated as follows: solutions of test compounds with concentrations from 5 μM to 75 μM were prepared in ethanol. An ethanolic solution of 5 mM GO′ was prepared and diluted to reach the absorbance of 1.00±0.02 at 428 nm. The addition (20 μL) in triplicate of compound solution to GO. solution (180 μL) was followed by absorbance measurement at 428 nm over 30 minutes, in the dark, at room temperature. […] Dose-response curves were established for the determination of IC50 values. Data are means±SEM of three independent experiments.

[2] = Redox properties by differential pulse and cyclic voltammetry; type: physicochemical; details: for reversibility of the oxidation reaction: cyclic voltammetry, physiological pH; for Ep (redox potential): physiological pH (7.4), voltammetry
Method: In an embodiment, and as an example, AntiOxCINs redox properties were evaluated (Table 1). Redox potentials are correlated with the ability of an antioxidant to donate a hydrogen atom and/or an electron to a free radical.
However, for pyrogallol derivatives (AntiOxCIN4, AntiOxCIN5 and AntiOxCIN7), a significant decrease in redox potentials was observed (Ep=0.034-0.057 V) (Table 1).
The voltammograms presented a diffusion peak and an adsorption post-peak at a more anodic potential correspondent to the oxidation of dissolved and adsorbed forms of the compounds, respectively. The oxidation waves can be related to the oxidation process of the pyrogallol moiety. The cyclic voltammograms also show the presence of two overlapped anodic peaks. The anodic peaks appeared to correspond to irreversible processes as any distinct reduction wave was not seen on the cathodic sweep. The existence of the additional phenolic group in the pyrogallol systems, when compared with the catechol ones, seems to influence the stabilization of the semiquinone intermediate and in turn the oxidative mechanism.
In an embodiment, the electrochemical analytical data was obtained using a computer controlled potentiostat Autolab PGSTAT302N (Metrohm Autolab, Utrecht, Netherlands). Generally, cyclic voltammetry (CV) data was acquired at a scan rate of 50 mVs^−1. Differential pulse voltammetry (DPV) results were acquired at a step potential of 4 mV, pulse amplitude of 50 mV and scan rate of 8 mVs^−1. The electrochemical signals were monitored by the General Purpose Electrochemical System (GPES) version 4.9, software package. All electrochemical experiments were performed at room temperature in an electrochemical cell that was placed in a Faraday cage in order to minimize the contribution of background noise to the analytical signal.
In an embodiment, the process of evaluation of AntiOxCINs redox properties was conducted as follows: stock solutions of each compound (10 mM) were prepared by dissolving the appropriate amount in ethanol. The voltammetric working solutions were prepared in the electrochemical cell, at a final concentration of 0.1 mM. The […] supporting electrolyte was prepared by diluting […] to 100 mL. Voltammetric data was acquired in a three-electrode system consisting of a glassy carbon electrode (GCE, d=2 mm) as working electrode, a counter electrode of platinum wire and a saturated Ag/AgCl reference electrode. In an embodiment, the evaluation of AntiOxCINs lipophilic properties was performed as follows: the electrochemical cell was a four-electrode system with arrays of micro liquid-liquid interfaces (μlTIES) containing two Ag/AgCl reference electrodes and two counter electrodes of Pt, one in each phase. The microporous membrane was sealed with a fluorosilicone sealant (Dow Corning 730) onto a glass cylinder which was filled with 4.0 mL of the aqueous phase, where the aliquots of AntiOxCINs solutions were added. The membrane was then immersed into the organic phase contained in the cell. The organic phase reference solution (a 2 mM BTPPACI+2 mM NaCl aqueous solution) was mechanically stabilized The aqueous supporting electrolyte solution was a Tris-HCl buffer 10 mM pH 7.0.

[3] = system: rat liver mitochondria (RLM); experiment: Mitochondrial respiration of isolated RLM (Clark-type oxygen electrode); type: biochemical; details: for effect on state 3 respiration: all tested concentrations (2.5-10 μM), FIG. 6B-H
Method: In an embodiment, and as an example, AntiOxCINs and MitoQ toxicity effects on the mitochondrial bioenergetics, namely on RLM ΔΨ and mitochondrial respiration parameters, were measured. The […] represents the main component of the electrochemical gradient generated by mitochondrial respiration and accounts for more than 90% of the total available energy. For mitochondrial respiration assays, glutamate/malate (for complex I) and succinate (for complex II) were used as substrates. In addition, the mitochondrial oxidative phosphorylation coupling index, known as respiratory control ratio (RCR, state 3/state 4 respiration) and ADP/O index (the coupling between ATP synthesis and oxygen consumption) were also calculated. AntiOxCINs and MitoQ were tested at antioxidant-relevant concentrations, with 10 μM being the highest concentration.
In an embodiment, the evaluation of AntiOxCINs functional mitochondrial toxicity profile was performed in rat liver mitochondria (RLM). […] The protein concentration was determined by the biuret assay using BSA as a standard.
In an embodiment, the evaluation of AntiOxCINs effect on mitochondrial respiration was performed as follows: the respiration of isolated RLM was evaluated polarographically with a Clark-type oxygen electrode, connected to a suitable recorder in a 1 mL thermostated water-jacketed chamber with magnetic stirring, at 37° C.^1. […] Increasing concentrations of AntiOxCINs (2.5-10 μM) were added to the reaction medium containing respiratory substrates glutamate/malate (10 mM and 5 mM respectively) or succinate (5 mM) and RLM (1 mg) and allowed to incubate for a 5 min period prior to the assay. State 2 was considered as the respiration during the 5 min incubation time with AntiOxCINs. […] State 4 was determined after ADP phosphorylation finished. Subsequent addition of oligomycin (2 μg/ml) inhibited ATP-synthase and originated the oligomycin-inhibition respiration state. Finally, 1 μM FCCP was added to induce uncoupled respiration.

SMILES	IC50 [1]	reversibility of the oxidation reaction [2]	Ep (redox potential) ([2]; listed as AntiOxClN2, methanesulfonate)	effect on state 3 respiration [3]	ADP/O ([3]; glutamate/malate, 2.5 μM)	RCR (respiratory control ratio, state 3/state 4) ([3]; glutamate/malate, 2.5 μM)	ADP/O ([3]; glutamate/malate, 5 μM)	RCR (respiratory control ratio, state 3/state 4) ([3]; glutamate/malate, 5 μM)	ADP/O ([3]; glutamate/malate, 10 μM)	RCR (respiratory control ratio, state 3/state 4) ([3]; glutamate/malate, 10 μM)	ADP/O ([3]; succinate, 2.5 μM)	RCR (respiratory control ratio, state 3/state 4) ([3]; succinate, 2.5 μM)	ADP/O ([3]; succinate, 5 μM)	RCR (respiratory control ratio, state 3/state 4) ([3]; succinate, 5 μM)	ADP/O ([3]; succinate, 10 μM)	RCR (respiratory control ratio, state 3/state 4) ([3]; succinate, 10 μM)	Ep (redox potential) ([2]; listed as AntiOxClN3)	Ep (redox potential) ([2]; listed as AntiOxClN4, methanesulfonate)	Ep (redox potential) ([2]; listed as AntiOxClN5, methanesulfonate)	Ep (redox potential) ([2]; listed as AntiOxClN6, methanesulfonate)
CS(=O)(=O)[O-].O=C(/C=C/c1ccc(O)c(O)c1)NCCCCCC[P+](c1ccccc1)(c1ccccc1)c1ccccc1 [AntiOxCIN2, (E)-(6-(3-(3,4-dihydroxyphenyl)prop-2-enamido)hexyl)triphenylphosphonium methanesulfonate]	4100 nM	reversible reaction	0.164 V	decrease	2.4 ± 0.04	5.2 ± 1.0	2.2 ± 0.1	3.9 ± 0.6	2.2 ± 0.1	3.4 ± 0.3	1.4 ± 0.1	3.3 ± 0.2	1.3 ± 0.1	3.3 ± 0.2	1.1 ± 0.1	2.1 ± 0.2				
CS(=O)(=O)[O-].O=C(/C=C/c1ccc(O)c(O)c1)NCCCCCCCC[P+](c1ccccc1)(c1ccccc1)c1ccccc1 [AntiOxCIN3, (E)-(8-(3-(3,4-dihydroxyphenyl)acrylamido)octyl)triphenylphosphoniummethanesulfonate]	2800 nM	reversible reaction		increase	2.4 ± 0.2	3.8 ± 0.5	2.7 ± 0.2	3.5 ± 0.5	2.4 ± 0.1	3.3 ± 0.3	1.6 ± 0.1	4.1 ± 0.5	1.8 ± 0.3	4.7 ± 0.7	1.6 ± 0.1	3.9 ± 0.6	0.170 V			
CS(=O)(=O)[O-].O=C(/C=C/c1cc(O)c(O)c(O)c1)NCCCCCC[P+](c1ccccc1)(c1ccccc1)c1ccccc1 [AntiOxCIN4, (E)-(6-(3-(3,4,5-trihydroxyphenyl)prop-2-enamido)hexyl)triphenylphosphonium methanesulfonate]	3100 nM	irreversible oxidation reaction		decrease	2.4 ± 0.1	5.3 ± 0.8	2.2 ± 0.1	4.3 ± 0.7	2.2 ± 0.1	3.5 ± 0.5	1.4 ± 0.1	3.4 ± 0.3	1.3 ± 0.1	3.0 ± 0.34	1.3 ± 0.02	2.7 ± 0.4		0.034 V		
CS(=O)(=O)[O-].O=C(/C=C/c1cc(O)c(O)c(O)c1)NCCCCCCCC[P+](c1ccccc1)(c1ccccc1)c1ccccc1 [AntiOxCIN5, (E)-(8-(3-(3,4,5-trihydroxyphenyl)acrylamido)octyl)triphenylphosphonium methanesulfonate]	2300 nM	irreversible oxidation reaction		increase	2.4 ± 0.1	3.7 ± 0.4	2.5 ± 0.1	3.7 ± 0.4	2.5 ± 0.1	3.2 ± 0.1	1.6 ± 0.1	4.2 ± 0.4	1.5 ± 0.1	4.4 ± 0.8	1.6 ± 0.1	4.0 ± 0.8			0.046 V	
CS(=O)(=O)[O-].O=C(/C=C/c1ccc(O)c(O)c1)NCCCCCCCCCC[P+](c1ccccc1)(c1ccccc1)c1ccccc1 [AntiOxCIN6, (E)-(10-(3-(3,4-dihydroxyphenyl)acrylamido)decyl)triphenylphosphonium methanesulfonate]	2700 nM	reversible reaction		increase	2.5 ± 0.1	3.1 ± 0.3	2.5 ± 0.2	3.3 ± 0.2	2.3 ± 0.1	2.6 ± 0.1	1.5 ± 0.1	3.7 ± 0.6	1.5 ± 0.1	3.2 ± 0.3	1.6 ± 0.11	2.6 ± 0.3				0.174 V

— patent US10913757B2, “Hydroxycinnamic derivatives, methods and uses thereof” (UNIVERSIDADE DO PORTO, priority 2016, dated 2021)
